Source: PubChem BioAssay (NCI)
Where “and” joins values, the source holds several entries; their conditions need not be identical. Identical values can stand only once.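 A five-concentration, 48-hour dose response in 96-well plates underlies each endpoint, interpolated linearly between surrounding concentrations. The concentration for 50% growth inhibition is given as GI50. TGI marks complete inhibition of growth.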

Legend:
Assay in all cases: NCI tumour cell line growth inhibition, 48 h
SK-MEL-2 melanoma = test system: SK-MEL-2 melanoma
SK-MEL-5 melanoma = test system: SK-MEL-5 melanoma
NCI-H23 lung = test system: NCI-H23 lung
A549 NSCLC = test system: A549 NSCLC
HCT-15 colon = test system: HCT-15 colon
RXF 393 renal = test system: RXF 393 renal
SF-268 CNS = test system: SF-268 CNS
UACC-257 melanoma = test system: UACC-257 melanoma
786-0 renal = test system: 786-0 renal
BT-549 breast = test system: BT-549 breast

Compound | TGI (SK-MEL-2 melanoma) [µM] | TGI (SK-MEL-5 melanoma) [µM] | TGI (NCI-H23 lung) | TGI (A549 NSCLC) [µM] | TGI (HCT-15 colon) [µM] | TGI (RXF 393 renal) [µM] | TGI (SF-268 CNS) [µM] | TGI (UACC-257 melanoma) [µM] | TGI (786-0 renal) [µM] | TGI (BT-549 breast) [µM] | GI50 (NCI-H23 lung) [nM] | GI50 (A549 NSCLC) [nM] | GI50 (HCT-15 colon) [nM] | GI50 (SF-268 CNS) [nM]
C=C/C(C)=C/[C@H](C)C(=O)C[C@H](O)CC1CC(=O)NC(=O)C1 | > 100 | > 100 | > 100 µM | > 100 | > 100 | > 100 | > 100 | 97.9 |  |  |  |  |  | 
CN(C)[C@@H]1C(=O)C(C(N)=O)=C(O)[C@@]2(O)C(=O)C3=C(O)c4c(O)cccc4C[C@H]3C[C@@H]12 | 3.31 | 3.63 | 4.27 µM | 5.52 | 22 | 3.11 | 3.23 |  | 5.92 |  |  |  |  | 
c1ccc2[nH]c(-c3nc4ccccc4o3)nc2c1 | > 100 | > 100 | > 100 µM | > 100 | > 100 |  | > 100 | > 100 | > 100 |  |  |  |  | 
Nc1cc2c(cc1[N+](=O)[O-])[nH]c1c(-c3ccccc3)nccc12 | 38.2 | 31.7 | 39.5 µM | 69.6 | > 57.3 | 73.1 | > 100 | 42.4 |  |  |  |  |  | 
CC1=C/C(=C(\c2ccc(N(C)C)cc2)c2ccc([N+](C)(C)C)cc2)C=CC1=[N+](C)C | 35 | 24.5 | 26.6 µM | 28.9 | > 100 | 25.4 | 26.3 | 27.9 | 58.2 |  |  |  |  | 
Cc1ccc(-c2cc(-c3ccco3)nc(N)n2)o1 | > 100 | > 100 | > 100 µM | > 100 | > 100 | > 100 | > 100 |  | > 100 |  |  |  |  | 
O=c1[nH]cnc2c1nnn2CCCn1nnc2c(=O)[nH]cnc21 | > 100 | > 100 | > 100 µM | > 100 | > 100 | > 100 | > 100 | > 100 | > 100 |  |  |  |  | 
COc1ccc(C[C@@H]2CN(C(=O)c3ccccc3)[C@H](Cc3ccc(O)cc3)CN2C(=O)c2ccccc2)cc1Br | > 100 |  | > 100 µM | > 100 | > 100 |  | > 100 | > 100 | > 100 | > 100 |  |  |  | 
Cc1ccc(OP2(=O)Oc3ccc4ccccc4c3CN2c2ccc(Cl)cc2)cc1C (centres undefined) | > 100 | > 100 | > 100 µM | > 100 | > 100 | > 100 | > 100 | > 100 |  |  |  |  |  | 
Oc1c(Cl)c2nccnc2c2ccccc12 | > 100 | > 100 | > 100 µM | > 100 | > 100 | > 100 | > 100 | > 100 | > 100 |  |  |  |  | 
On1c(-c2ccccc2)c(-c2c(-c3ccccc3)n(O)c3ccccc23)c2ccccc21 | 59.2 | 50 | 90.1 µM | > 100 | > 100 | > 100 | > 100 | 88.9 | 39.7 |  |  |  |  | 
Cc1cc(Br)c(N2C3=C(CC4=C2CCCC4=O)C(=O)CCC3)c(Br)c1 |  | > 100 | > 100 µM | > 100 | > 100 | 84.7 | > 100 |  | > 100 | > 100 |  |  |  | 
c1cnc2c(c1)-n1cccc1C1(CCOCC1)NN2 | > 100 | > 100 | > 100 µM | > 100 | > 100 | > 100 | > 100 |  | > 100 |  |  |  |  | 
C=C1CC2CC[C@@]34C[C@@H]5O[C@@H]6C(O[C@H]7CC[C@H](CC(=O)OC8[C@@H](C)C9OC%10C[C@]%11(C[C@@H]%12O[C@@]%13(C[C@@H](C)[C@@H]%12O%11)C[C@H](C)[C@@H]%11OC%12CC(C(O)CO)OC%12C[C@@H]%11O%13)OC%10CC9O[C@H]8C[C@H]8O[C@@H](CC[C@@H]1O2)C[C@@H](C)C8=C)O[C@@H]7[C@@H]6O3)C5O4 (some centres undefined) | 0.00727 | 0.00591 | 0.0068 µM and 0.00198 µM | > 1.48 |  | 0.00451 | > 1.48 |  |  |  | < 0.148 | < 0.148 | 0.233 | < 0.148
COc1ccc(-n2sc3ncc(-c4ccccc4)cc3c2=O)cc1 | > 100 | > 100 | 53.3 µM | > 100 | > 100 | > 100 |  | > 100 | 39.3 | > 100 |  |  |  | 
O=C(NCCNCCO)N/N=C/c1cccc([N+](=O)[O-])c1 | > 100 | > 100 | > 100 µM | > 100 | > 100 | > 100 | > 100 | > 100 | > 100 |  |  |  |  | 
COc1ccc(NC(=S)NN=C(C)c2cccc(C(C)=NNC(=S)Nc3ccc(OC)cc3)n2)cc1 | > 100 | > 100 | > 100 µM | > 100 | > 100 | > 100 | > 100 | > 100 | > 100 |  |  |  |  | 
O=C(CCN1CCCCC1CCO)Nc1ccc2c(c1)C(=O)c1ccc(NC(=O)CCN3CCCCC3CCO)cc1C2=O (centres undefined) | 7.27 | 21.5 | 40.3 µM | 41.1 | 24.6 | 6.46 | 25.4 | 20.6 | 5.54 |  |  |  |  | 
